In PubChem BioAssay (NCI):
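Briefly, cells in 96-well plates were exposed to five compound concentrations for 48 h, and endpoints were estimated by linear interpolation. GI50 marks 50% less growth. TGI: total growth inhibition.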

Assays:
Experiment in all cases: NCI anticancer screen, dose series, 48 h
RXF 393 renal = tested on: RXF 393 renal
U251 CNS = tested on: U251 CNS
NCI-H522 lung = tested on: NCI-H522 lung
PC-3 prostate = tested on: PC-3 prostate
OVCAR-3 ovarian = tested on: OVCAR-3 ovarian
CAKI-1 renal = tested on: CAKI-1 renal
MALME-3M melanoma = tested on: MALME-3M melanoma
NCI-H23 lung = tested on: NCI-H23 lung
EKVX NSCLC = tested on: EKVX NSCLC
SNB-75 CNS = tested on: SNB-75 CNS
NCI/ADR-RES ovarian = tested on: NCI/ADR-RES ovarian
A498 renal = tested on: A498 renal
MOLT-4 leukemia = tested on: MOLT-4 leukemia
SF-295 CNS = tested on: SF-295 CNS
NCI-H460 lung = tested on: NCI-H460 lung
K-562 leukemia = tested on: K-562 leukemia
COLO 205 colon = tested on: COLO 205 colon
A549 NSCLC = tested on: A549 NSCLC
SW-620 colon = tested on: SW-620 colon
HOP-62 NSCLC = tested on: HOP-62 NSCLC
BT-549 breast = tested on: BT-549 breast
HCT-15 colon = tested on: HCT-15 colon
HS 578T breast = tested on: HS 578T breast
OVCAR-4 ovarian = tested on: OVCAR-4 ovarian
SNB-19 CNS = tested on: SNB-19 CNS
OVCAR-5 ovarian = tested on: OVCAR-5 ovarian
MDA-MB-435 = tested on: MDA-MB-435
SK-OV-3 ovarian = tested on: SK-OV-3 ovarian
UACC-257 melanoma = tested on: UACC-257 melanoma
MCF7 breast = tested on: MCF7 breast
HCC-2998 colon = tested on: HCC-2998 colon
SF-268 CNS = tested on: SF-268 CNS
SK-MEL-5 melanoma = tested on: SK-MEL-5 melanoma
NCI-H226 lung = tested on: NCI-H226 lung
UO-31 renal = tested on: UO-31 renal
786-0 renal = tested on: 786-0 renal
HOP-92 NSCLC = tested on: HOP-92 NSCLC
HL-60(TB) leukemia = tested on: HL-60(TB) leukemia
RPMI-8226 leukemia = tested on: RPMI-8226 leukemia
CCRF-CEM leukemia = tested on: CCRF-CEM leukemia
SK-MEL-2 melanoma = tested on: SK-MEL-2 melanoma
SR leukemia = tested on: SR leukemia
ACHN renal = tested on: ACHN renal
UACC-62 melanoma = tested on: UACC-62 melanoma
DU-145 prostate = tested on: DU-145 prostate
KM12 colon = tested on: KM12 colon
LOX IMVI melanoma = tested on: LOX IMVI melanoma
SK-MEL-28 melanoma = tested on: SK-MEL-28 melanoma
M14 melanoma = tested on: M14 melanoma
IGROV1 ovarian = tested on: IGROV1 ovarian
HT29 colon = tested on: HT29 colon
SN12C renal = tested on: SN12C renal
MDA-MB-231 breast = tested on: MDA-MB-231 breast
OVCAR-8 ovarian = tested on: OVCAR-8 ovarian
T-47D breast = tested on: T-47D breast
TK-10 renal = tested on: TK-10 renal
SF-539 CNS = tested on: SF-539 CNS
HCT-116 colon = tested on: HCT-116 colon

## c1ccc(Sc2ncnc3ccccc23)cc1
RXF 393 renal
  GI50: 13.4 µM
  TGI: 27.1 µM
U251 CNS
  GI50: 12.9 µM
  TGI: 31.8 µM
NCI-H522 lung
  GI50: 7.19 µM
  TGI: 29.1 µM
PC-3 prostate
  GI50: 12.3 µM
  TGI: 60 µM
OVCAR-3 ovarian
  GI50: 14.6 µM
  TGI: 28 µM
CAKI-1 renal
  GI50: 12.7 µM
  TGI: 32.3 µM
MALME-3M melanoma
  GI50: 10.8 µM
  TGI: 29.8 µM
NCI-H23 lung
  GI50: 8.52 µM
  TGI: 25.7 µM
EKVX NSCLC
  GI50: 10.6 µM
  TGI: 25.1 µM
SNB-75 CNS
  GI50: 12.1 µM
  TGI: 35 µM
NCI/ADR-RES ovarian
  GI50: 11.8 µM
  TGI: 35 µM
A498 renal
  GI50: 15.4 µM
  TGI: 39.2 µM
MOLT-4 leukemia
  GI50: 4.98 µM
  TGI: 36 µM
SF-295 CNS
  GI50: 14.2 µM
  TGI: 45.6 µM
NCI-H460 lung
  GI50: 24.2 µM
  TGI: > 100 µM
K-562 leukemia
  GI50: 9.72 µM
  TGI: > 100 µM
COLO 205 colon
  GI50: 15 µM
  TGI: 28.3 µM
A549 NSCLC
  GI50: 18.1 µM
  TGI: 68.3 µM
SW-620 colon
  GI50: 14.6 µM
  TGI: 34.8 µM
HOP-62 NSCLC
  GI50: 16.3 µM
  TGI: 40.5 µM
BT-549 breast
  GI50: 5.42 µM
  TGI: 22 µM
HCT-15 colon
  GI50: 8.03 µM
  TGI: 37.2 µM
HS 578T breast
  GI50: 29.5 µM
  TGI: > 100 µM
OVCAR-4 ovarian
  GI50: 8.05 µM
  TGI: > 100 µM
SNB-19 CNS
  GI50: 18.6 µM
  TGI: 51.5 µM
OVCAR-5 ovarian
  GI50: 19.2 µM
  TGI: 37.2 µM
MDA-MB-435
  GI50: 8.19 µM
  TGI: 32.5 µM
SK-OV-3 ovarian
  GI50: 22.1 µM
  TGI: 49.6 µM
UACC-257 melanoma
  GI50: 11.9 µM
  TGI: 34.7 µM
MCF7 breast
  GI50: 17.8 µM
  TGI: 67.9 µM
HCC-2998 colon
  GI50: 15.4 µM
  TGI: 28.7 µM
SF-268 CNS
  GI50: 13.9 µM
  TGI: 41.7 µM
SK-MEL-5 melanoma
  GI50: 11.4 µM
  TGI: 24 µM
NCI-H226 lung
  GI50: 13.4 µM
  TGI: 56.2 µM
UO-31 renal
  GI50: 5.07 µM
  TGI: 21.1 µM
786-0 renal
  GI50: 14.9 µM
  TGI: 34.5 µM
HOP-92 NSCLC
  GI50: 4.49 µM
  TGI: 27.5 µM
HL-60(TB) leukemia
  GI50: 6.37 µM
  TGI: 27.9 µM
RPMI-8226 leukemia
  GI50: 9.49 µM
  TGI: 37.6 µM
CCRF-CEM leukemia
  GI50: 2900 nM
  TGI: 61.4 µM
SK-MEL-2 melanoma
  GI50: 22.6 µM
  TGI: 63 µM
SR leukemia
  GI50: 4.78 µM
  TGI: 53.1 µM
ACHN renal
  GI50: 11 µM
  TGI: 31.6 µM
UACC-62 melanoma
  GI50: 9.06 µM
  TGI: 23.5 µM
DU-145 prostate
  GI50: 12 µM
  TGI: 24.9 µM
KM12 colon
  GI50: 13.2 µM
  TGI: 28.2 µM
LOX IMVI melanoma
  GI50: 6.27 µM
  TGI: 19.8 µM
SK-MEL-28 melanoma
  GI50: 23.7 µM
  TGI: 89.2 µM
M14 melanoma
  GI50: 12.3 µM
  TGI: 27.6 µM
IGROV1 ovarian
  GI50: 4.5 µM
  TGI: 34.3 µM
HT29 colon
  GI50: 19.3 µM
  TGI: 44.7 µM
SN12C renal
  GI50: 10.8 µM
  TGI: 27.4 µM
MDA-MB-231 breast
  GI50: 13.5 µM
  TGI: 49.9 µM
OVCAR-8 ovarian
  GI50: 19.8 µM
  TGI: 75.9 µM
T-47D breast
  GI50: 9.72 µM
  TGI: 28.4 µM
TK-10 renal
  GI50: 27.6 µM
  TGI: > 100 µM
SF-539 CNS
  GI50: 15.9 µM
  TGI: 34.2 µM
HCT-116 colon
  GI50: 10.9 µM
  TGI: 23.7 µM
